Test results published in patent US20180057507A1, “INHIBITORS OF DUAL LEUCINE ZIPPER (DLK) KINASE FOR THE TREATMENT OF DISEASE” (Board of Regents, The University of Texas System, priority 2016, published 2018).

Tests used:
human DLK [1] = biological target: T1, human DLK (Homo sapiens, UniProt Q12852); assay: DLK Kd Determinations (KINOMEscan KdELECT, DiscoveRx); set-up: full length of human DLK (amino acids 1-859); host or cells: transiently transfected HEK293 cells; unpurified extract; conditions: fusion protein of full length human DLK (amino acids 1-859) and NFkB DNA binding domain; qPCR readout; duplicate
T1 sequence (Q12852 1-859): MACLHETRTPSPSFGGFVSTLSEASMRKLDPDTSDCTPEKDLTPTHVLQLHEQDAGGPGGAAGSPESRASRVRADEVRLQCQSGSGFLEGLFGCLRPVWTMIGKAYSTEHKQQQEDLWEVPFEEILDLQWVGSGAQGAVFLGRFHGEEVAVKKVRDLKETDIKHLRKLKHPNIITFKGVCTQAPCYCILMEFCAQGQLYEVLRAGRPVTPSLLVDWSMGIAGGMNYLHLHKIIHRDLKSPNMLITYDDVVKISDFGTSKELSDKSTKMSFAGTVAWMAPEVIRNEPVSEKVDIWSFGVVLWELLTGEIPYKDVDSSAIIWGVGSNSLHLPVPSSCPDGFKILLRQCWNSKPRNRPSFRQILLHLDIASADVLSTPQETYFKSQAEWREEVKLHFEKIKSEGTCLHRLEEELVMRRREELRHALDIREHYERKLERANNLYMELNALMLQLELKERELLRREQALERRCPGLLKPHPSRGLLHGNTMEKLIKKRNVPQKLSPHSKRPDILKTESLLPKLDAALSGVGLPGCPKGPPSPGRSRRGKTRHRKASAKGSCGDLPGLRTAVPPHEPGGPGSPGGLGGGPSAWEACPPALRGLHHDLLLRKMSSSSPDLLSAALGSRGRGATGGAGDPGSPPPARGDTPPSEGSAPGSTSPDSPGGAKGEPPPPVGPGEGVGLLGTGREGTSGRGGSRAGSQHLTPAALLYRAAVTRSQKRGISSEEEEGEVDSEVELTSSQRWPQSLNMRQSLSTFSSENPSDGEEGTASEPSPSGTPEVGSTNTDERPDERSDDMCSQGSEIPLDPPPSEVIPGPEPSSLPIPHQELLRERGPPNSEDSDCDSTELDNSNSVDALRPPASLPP
How it was run: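 Competition binding of full-length human DLK (aa 1-859)-NFkB DBD fusion, DNA-tagged, from HEK293 extracts against an immobilized ligand; 1 h at room temperature, 0.9% DMSO. Bead-bound kinase was quantified by qPCR. Kd came from an 11-point 3-fold series (top 30,000 nM), in duplicate, with Hill slope fixed at −1.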

human DLK [2] = biological target: T1, human DLK; assay: Phospho-cJun Cellular Assay; format: cell-based; set-up: expressed in transfected cells; conditions: HEK293 cells stably transfected with Dox-inducible human DLK; p-cJun (Ser63); 5 h compound incubation
Procedure: Phospho-cJun Cellular Assay
HEK293 cells stably transfected with a Dox-inducible human DLK were plated into a 384-well plate in 20 μl (40,000 cells/well) of DMEM medium (without phenol red) containing 10% fetal bovine serum, 1.5 μg/ml doxycycline and 1 μg/ml puromycin. The cells as negative control were grown in the absence of doxycycline. The plate was incubated at 37° C., 5% CO2 for 20 h, before DMSO (control) or compounds diluted in medium were added. The cells were incubated at 37° C. for an additional 5 h, followed by lysis and the addition detection antibodies from p-cJun (Ser63) cellular assay kit (Cisbio) per manufacturer protocol. The standard dose response curves were fitted by Genedata Screener software using the variable-slope model: Signal=Signalnegative control+(SignalDMSO control−Signalnegative control)/(1+(IC50/Dose)̂Hill slope). Only signal and dose in the equation were treated as known values.

Q: Which Kd (human DLK [1]) does the source give for `CC(C)c1nc(-c2cnc(N)c(OC(F)(F)F)c2)cn1[C@H]1C2CC(N3C[C@@H]4C[C@H]3CO4)C[C@@H]21` (stereo in doubt) [Example 134, 5-(1-((1S,5S)-3-((1S,4S)-2-oxa-5-azabicyclo[2.2.1]heptan-5-yl)bicyclo[3.1.0]hexan-6-yl)-2-isopropyl-1H-imidazol-4-yl)-3-(trifluoromethoxy)pyridin-2-amine] here?
A: 33 nM

Q: And the IC50 (human DLK [2])?
A: 1040 nM

Q: Which results are given for `Nc1ncc(-c2cn([C@H]3[C@@H]4CC(N5CCN(CCF)CC5)C[C@@H]43)c(C3CC3)n2)cc1OC(F)(F)F` (single isomer, unassigned) [Example 154a, 5-(2-cyclopropyl-1-(3-(4-(2-fluoroethyl)piperazin-1-yl)bicyclo[3.1.0]hexan-6-yl)-1H-imidazol-4-yl)-3-(trifluoromethoxy)pyridin-2-amine]?
A: Kd (human DLK [1]): 28 nM; IC50 (human DLK [2]): 761 nM

Q: Which Kd (human DLK [1]) does the source give for `C[C@H]1COCCN1C1C[C@@H]2[C@H](C1)[C@H]2n1cc(-c2cnc(N)c(C(F)(F)F)c2)nc1C1CC1` (single isomer, unassigned) [Example 140a] here?
A: 32 nM

Q: What about the IC50 (human DLK [2]) of the same compound?
A: 834 nM

Q: `CN1CCN(C2C[C@@H]3[C@H](C2)[C@H]3n2cc(-c3cnc(N)c(OC(F)F)c3)nc2C2CC2)CC1` (stereo partly drawn) [Example 150, 5-(2-cyclopropyl-1-(3-(4-methylpiperazin-1-yl)bicyclo[3.1.0]hexan-6-yl)-1H-imidazol-4-yl)-3-(difluoromethoxy)pyridin-2-amine] was tested. Which Kd (human DLK [1]) did it give?
A: 54 nM

Q: What about the IC50 (human DLK [2]) of the same compound?
A: 1090 nM

Q: `Nc1ncc(-c2cn([C@H]3[C@@H]4CN(C5COC5)C[C@@H]43)c(C3CC3)n2)cc1C(F)(F)F` [Example 73, 5-(2-cyclopropyl-1-((1R,5S,6s)-3-(oxetan-3-yl)-3-azabicyclo[3.1.0]hexan-6-yl)-1H-imidazol-4-yl)-3-(trifluoromethyl)pyridin-2-amine] was tested. Which Kd (human DLK [1]) did it give?
A: 56 nM

Q: What about the IC50 (human DLK [2]) of the same compound?
A: 1200 nM

Q: `Nc1ncc(-c2cn([C@H]3[C@@H]4CC(N5CCOCC5)C[C@@H]43)c(C3CC3)n2)cc1OC(F)(F)F` (single isomer, unassigned) [Example 139a, 5-(2-cyclopropyl-1-(3-morpholinobicyclo[3.1.0]hexan-6-yl)-1H-imidazol-4-yl)-3-(trifluoromethoxy)pyridin-2-amine] was tested. Which Kd (human DLK [1]) did it give?
A: 37 nM

Q: What about the IC50 (human DLK [2]) of the same compound?
A: 544 nM

Q: `CC1COCCN1C1CC2C(C1)C2n1cc(-c2cnc(N)c(OC(F)(F)F)c2)nc1C1CC1` (stereo not drawn) [Example 147, 5-(2-cyclopropyl-1-(3-(3-methylmorpholino)bicyclo[3.1.0]hexan-6-yl)-1H-imidazol-4-yl)-3-(trifluoromethoxy)pyridin-2-amine] was tested. Which Kd (human DLK [1]) did it give?
A: 23 nM

Q: What about the IC50 (human DLK [2]) of the same compound?
A: 893 nM

Q: Which results are given for `CN1CCN(C2C[C@@H]3[C@H](C2)[C@H]3n2cc(-c3cnc(N)c(C(F)(F)F)c3)nc2CC2CC2)CC1` (single isomer, unassigned) [Example 161a, 5-(2-(cyclopropylmethyl)-1-(3-(4-methylpiperazin-1-yl)bicyclo[3.1.0]hexan-6-yl)-1H-imidazol-4-yl)-3-(trifluoromethyl)pyridin-2-amine]?
A: Kd (human DLK [1]): 19 nM; IC50 (human DLK [2]): 454 nM

Q: Which Kd (human DLK [1]) does the source give for `COCCN1C[C@@H]2[C@H](C1)[C@H]2n1cc(-c2cnc(N)c(OC(F)F)c2)nc1CC1CC1` [Example 117, 5-(2-(cyclopropylmethyl)-1-((1R,5S,6s)-3-(2-methoxyethyl)-3-azabicyclo[3.1.0]hexan-6-yl)-1H-imidazol-4-yl)-3-(difluoromethoxy)pyridin-2-amine] here?
A: 48 nM

Q: And the IC50 (human DLK [2])?
A: 987 nM

Q: For `Nc1ncc(-c2cn([C@H]3[C@@H]4CN(C5COC5)C[C@@H]43)c(CC3CC3)n2)cc1OC(F)(F)F` [Example 92, 5-(2-(cyclopropylmethyl)-1-((1R,5S,6s)-3-(oxetan-3-yl)-3-azabicyclo[3.1.0]hexan-6-yl)-1H-imidazol-4-yl)-3-(trifluoromethoxy)pyridin-2-amine], which Kd (human DLK [1]) is on record?
A: 55 nM

Q: What about the IC50 (human DLK [2]) of the same compound?
A: 1820 nM

Q: For `Nc1ncc(-c2cn([C@H]3[C@@H]4CNC[C@@H]43)c(CC3CC3)n2)cc1OC(F)(F)F` [Example 90, 5-(1-((1R,5S,6s)-3-azabicyclo[3.1.0]hexan-6-yl)-2-(cyclopropylmethyl)-1H-imidazol-4-yl)-3-(trifluoromethoxy)pyridin-2-amine], which Kd (human DLK [1]) is on record?
A: 40 nM

Q: And the IC50 (human DLK [2])?
A: 1120 nM

Q: `CC(C)c1nc(-c2cnc(N)c(OC(F)F)c2)cn1[C@H]1[C@@H]2CC(N3CCN(C)CC3)C[C@@H]21` (single isomer, unassigned) [Example 145b, 3-(difluoromethoxy)-5-(2-isopropyl-1-(3-(4-methylpiperazin-1-yl)bicyclo[3.1.0]hexan-6-yl)-1H-imidazol-4-yl)pyridin-2-amine] was tested. Which Kd (human DLK [1]) did it give?
A: 50 nM

Q: And the IC50 (human DLK [2])?
A: 889 nM

Q: With `Nc1ncc(-c2cn(C3CC4(CC(N5CCOCC5)C4)C3)c(C3CC3)n2)cc1OC(F)(F)F` (stereo not drawn) [Example 41, 5-(2-cyclopropyl-1-(6-morpholinospiro[3.3]heptan-2-yl)-1H-imidazol-4-yl)-3-(trifluoromethoxy)pyridin-2-amine] as the compound, how does the Kd (human DLK [1]) read?
A: 38 nM

Q: What about the IC50 (human DLK [2]) of the same compound?
A: 483 nM

Q: What does the source list for `Nc1ncc(-c2cn([C@H]3[C@@H]4CC(N5CCOCC5)C[C@@H]43)c(C3CC3)n2)cc1C(F)(F)F` (single isomer, unassigned) [Example 128a, 5-(2-cyclopropyl-1-(3-morpholinobicyclo[3.1.0]hexan-6-yl)-1H-imidazol-4-yl)-3-(trifluoromethyl)pyridin-2-amine]?
A: Kd (human DLK [1]): 40 nM; IC50 (human DLK [2]): 748 nM

Q: With `COCCN1C[C@@H]2[C@H](C1)[C@H]2n1cc(-c2cnc(N)c(C(F)(F)F)c2)nc1CC1CC1` [Example 78, 5-(2-(cyclopropylmethyl)-1-((1R,5S,6s)-3-(2-methoxyethyl)-3-azabicyclo[3.1.0]hexan-6-yl)-1H-imidazol-4-yl)-3-(trifluoromethyl)pyridin-2-amine] as the compound, how does the Kd (human DLK [1]) read?
A: 64 nM

Q: What about the IC50 (human DLK [2]) of the same compound?
A: 781 nM

Q: Which results are given for `Nc1ncc(-c2cn([C@H]3[C@@H]4CC(N5CCCOCC5)C[C@@H]43)c(C3CC3)n2)cc1C(F)(F)F` (single isomer, unassigned) [Example 141a, 5-(1-(3-(1,4-oxazepan-4-yl)bicyclo[3.1.0]hexan-6-yl)-2-cyclopropyl-1H-imidazol-4-yl)-3-(trifluoromethyl)pyridin-2-amine]?
A: Kd (human DLK [1]): 26 nM; IC50 (human DLK [2]): 655 nM

Q: `CCC(O)c1nc(-c2cnc(N)c(C(F)(F)F)c2)cn1C1CCC1` (stereo not drawn) [Example 22, 1-(4-(6-amino-5-(trifluoromethyl)pyridin-3-yl)-1-cyclobutyl-1H-imidazol-2-yl)propan-1-ol] was tested. Which Kd (human DLK [1]) did it give?
A: 18 nM

Q: What about the IC50 (human DLK [2]) of the same compound?
A: 550 nM

Q: Which Kd (human DLK [1]) does the source give for `CC(C)Cc1nc(-c2cnc(N)c(OC(F)(F)F)c2)cn1[C@H]1[C@@H]2CC(N3CCN(C)CC3)C[C@@H]21` (stereo partly drawn) [Example 158, 5-(2-isobutyl-1-(3-(4-methylpiperazin-1-yl)bicyclo[3.1.0]hexan-6-yl)-1H-imidazol-4-yl)-3-(trifluoromethoxy)pyridin-2-amine] here?
A: 12 nM

Q: And the IC50 (human DLK [2])?
A: 500 nM

Q: What does the source list for `CC(C)c1nc(-c2cnc(N)c(C(F)(F)F)c2)cn1C1CCC1` [Example 7, 5-[1-cyclobutyl-2-(propan-2-yl)-1H-imidazol-4-yl]-3-(trifluoromethyl)pyridin-2-amine]?
A: Kd (human DLK [1]): 66 nM; IC50 (human DLK [2]): 1070 nM

Q: For `CC(C)c1nc(-c2cnc(N)c(C(F)(F)F)c2)cn1[C@H]1[C@@H]2CC(N3CCN(C)CC3)C[C@@H]21` (stereo partly drawn) [Example 144, 5-(2-isopropyl-1-(3-(4-methylpiperazin-1-yl)bicyclo[3.1.0]hexan-6-yl)-1H-imidazol-4-yl)-3-(trifluoromethyl)pyridin-2-amine], which Kd (human DLK [1]) is on record?
A: 38 nM

Q: And the IC50 (human DLK [2])?
A: 859 nM

Q: With `CC(C)c1nc(-c2cnc(N)c(OC(F)(F)F)c2)cn1[C@H]1[C@@H]2CN(C3CCOCC3)C[C@@H]21` [Example 81, 5-(2-isopropyl-1-((1R,5S,6s)-3-(tetrahydro-2H-pyran-4-yl)-3-azabicyclo[3.1.0]hexan-6-yl)-1H-imidazol-4-yl)-3-(trifluoromethoxy)pyridin-2-amine] as the compound, how does the Kd (human DLK [1]) read?
A: 99 nM

Q: What about the IC50 (human DLK [2]) of the same compound?
A: 1510 nM
